Read-outs that look alike come from different tables or passages of the source.
System: AGS cells (KRAS^G12D)
Experiment: Detection of cell proliferation in vitro by MTT/MTS method (cell activity experiment)
Assay type: cell-based
Settings: AGS cells, MTT/MTS, 3 days of drug treatment, read-out: AGS IC50
Procedure, shortened: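 After 3-day compound exposure (final DMSO 0.5%), viability of AGS (KRAS G12D) cells, plated 1000/well one day before dosing, was measured at 490 nm following 4 h MTT or MTS incubation. IC50 was fitted from dose–effect curves relative to DMSO-treated wells.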

SMILES | IC50 (Homo sapiens, AGS, 72 h) | IC50
C#CC1CCc2cc(O)cc(-c3ncc4c(N5C[C@H]6CC[C@@H](C5)N6)nc(OC[C@@]56CCCN5C[C@H](F)C6)nc4c3F)c21 (stereo partly drawn) [Example 247, 7-(4-((1R,5S)-3,8-diazabicyclo[3.2.1]octan-3-yl)-8-fluoro-2-(((2R,7aS)-2-fluorotetrahydro-1H-pyrrolizin-7a(5H)-yl)methoxy)pyrido[4,3-d]pyrimidin-7-yl)-1-ethynyl-2,3-dihydro-1H-inden-5-ol] | 6.1 nM | –
CCC1CCCc2cc(O)cc(-c3ccc4c(N5C[C@H]6CC[C@@H](C5)N6)nc(OC[C@@]56CCCN5C[C@H](F)C6)nc4c3F)c21 (single isomer, unassigned) [Example 291] | – | 7.2 nM
CC1CCCc2cc(O)cc(-c3ccc4c(N5C[C@H]6CC[C@@H](C5)N6)nc(OC[C@@]56CCCN5C[C@H](F)C6)nc4c3F)c21 (single isomer, unassigned) [Example 288] | – | 7.2 nM
C#Cc1cccc2cc(O)cc(-c3ncc4c(N5CC6CCC(C5)C6F)nc(OC[C@@]56CCCN5C[C@H](F)C6)nc4c3F)c12 (stereo partly drawn) [Example 36, 5-ethynyl-4-(8-fluoro-4-((1R,5S,8R)-8-fluoro-3-azabicyclo[3.2.1]octan-3-yl)-2-(((2R,7aS)-2-fluorotetrahydro-1H-pyrrolizin-7a(5H)-yl)methoxy)pyrido[4,3-d]pyrimidin-7-yl) naphthalen-2-ol] | > 2500 nM | –
C#Cc1cccc2cc(O)cc(-c3ccc4c(N5C[C@H]6CC[C@@H](C5)N6)nc(OC[C@@]56CCCN5C[C@H](F)C6)nc4c3)c12 [Example 152, 4-(4-((1R,5S)-3,8-diazabicyclo[3.2.1]octan-3-yl)-2-(((2R, 7aS)-2-fluorotetrahydro-1H-pyrrolizin-7a(5H)-yl)methoxy)quinazolin-7-yl)-5-ethynylnaphthalen-2-ol] | 318 nM | –
Oc1cc2c(c(-c3ncc4c(N5C[C@H]6CC[C@@H](C5)N6)nc(OC[C@@]56CCCN5C[C@H](F)C6)nc4c3F)c1)C(CC(F)F)CC2 (stereo partly drawn) [Example 258, 7-(4-((1R,5S)-3,8-diazabicyclo[3.2.1]octan-3-yl)-8-fluoro-2-(((2R,7aS)-2-fluorotetrahydro-1H-pyrrolizin-7a(5H)-yl)methoxy)pyrido[4,3-d]pyrimidin-7-yl)-1-(2,2-difluoroethyl)-2,3-dihydro-1H-inden-5-ol] | > 10000 nM | –
C#Cc1cccc2cc(O)cc(-c3ccc4c(N5C[C@H]6CC[C@@H](C5)C6(F)F)nc(OC[C@@]56CCCN5C[C@H](F)C6)nc4c3F)c12 [Example 121, 4-(4-((1R,5S)-8,8-difluoro-3-azabicyclo [3.2.1]octan-3-yl)-8-fluoro-2-(((2R,7aS)-2-fluorotetrahydro-1H-pyrrolizin-7a(5H)-yl)methoxy)quinazolin-7-yl)-5-ethynylnaphthalen-2-ol] | > 2500 nM | –
CC1(C)CCc2cc(O)cc(-c3ncc4c(N5C[C@H]6CC[C@@H](C5)N6)nc(OC[C@@]56CCCN5C[C@H](F)C6)nc4c3F)c21 [Example 299, 7-(4-((1R,5S)-3,8-diazabicyclo[3.2.1]octan-3-yl)-8-fluoro-2-(((2R,7aS)-2-fluorotetrahydro-1H-pyrrolizin-7a(5H)-yl)methoxy)pyrido[4,3-d]pyrimidin-7-yl)-1,1-dimethyl-2,3-dihydro-1H-inden-5-ol] | 945 nM | –
C#Cc1c(F)ccc2cc(O)cc(-c3c4c(c5c(N6C[C@H]7CC[C@@H](C6)N7)nc(OC[C@@]67CCCN6C[C@H](F)C7)nc5c3F)CCC4)c12 [Example 379, 4-(1-((1R,5S)-3,8-diazabicyclo[3.2.1]octan-3-yl)-5-fluoro-3-(((2R,7aS)-2-fluorotetrahydro-1H-pyrrolizin-7a(5H)-yl)methoxy)-8,9-dihydro-7H-cyclopenta[f]quinazolin-6-yl)-5-ethynyl-6-fluoronaphthalen-2-ol] | 90 nM | –
N#Cc1c(OC[C@@]23CCCN2C[C@H](F)C3)nc2c(F)c(-c3cc(O)cc4cccc(F)c34)ncc2c1N1C[C@H]2CC[C@@H](C1)N2 [Example 194, 4-((1R,5S)-3,8-diazabicyclo[3.2.1]octan-3-yl)-8-fluoro-7-(8-fluoro-3-hydroxynaphthalen-1-yl)-2-(((2R,7aS)-2-fluorotetrahydro-1H-pyrrolizin-7a(5H)-yl)methoxy)-1,6-naphthyridine-3-carbonitrile] | 150 nM | –
N#Cc1c(OC[C@@]23CCCN2C[C@H](F)C3)nc2cc(-c3cccc4ccc(F)c(Cl)c34)ccc2c1N1C[C@H]2CC[C@@H](C1)N2 [Example 170, 4-((1R,5S)-3,8-diazabicyclo[3.2.1]octan-3-yl)-7-(8-chloro-7-fluoronaphthalen-1-yl)-2-(((2R,7aS)-2-fluorotetrahydro-1H-pyrrolizin-7a(5H)-yl)methoxy)quinoline-3-carbonitrile] | 1040 nM | –
CC1CCCc2cc(O)cc(C3=C(F)c4nc(OC[C@@]56CCCN5C[C@H](F)C6)nc(N5C[C@H]6CC[C@@H](C5)N6)c4C4=NCCN43)c21 (stereo partly drawn) [Example 407, 4-(10-((1R,5S)-3,8-diazabicyclo[3.2.1]octan-3-yl)-6-fluoro-8-(((2R,7aS)-2-fluorotetrahydro-1H-pyrrolizin-7a(5H)-yl)methoxy)-2,3-dihydroimidazo[1′,2′:1,2]pyrido[4,3-d]pyrimidin-5-yl)-5-methyl-5,6,7,8-tetrahydronaphthalen-2-ol] | 35 nM | –
C/C=C1\C(=O)Cc2cc(O)cc(-c3ncc4c(N5C[C@H]6CC[C@@H](C5)N6)nc(OC[C@@]56CCCN5C[C@H](F)C6)nc4c3F)c21 [Example 264, (Z)-7-(4-((1R,5S)-3,8-diazabicyclo[3.2.1]octan-3-yl)-8-fluoro-2-(((2R,7aS)-2-fluorotetrahydro-1H-pyrrolizin-7a(5H)-yl)methoxy)pyrido[4,3-d]pyrimidin-7-yl)-1-ethylidene-5-hydroxy-1,3-dihydro-2H-inden-2-one] | > 10000 nM | –
CSc1c(F)ccc2cc(O)cc(-c3ncc4c(N5C[C@H]6CC[C@@H](C5)N6)nc(OC[C@@]56CCCN5C[C@H](F)C6)nc4c3F)c12 [Example 360, 4-(4-((1R,5S)-3,8-diazabicyclo[3.2.1]octan-3-yl)-8-fluoro-2-(((2R,7aS)-2-fluorotetrahydro-1H-pyrrolizin-7a(5H)-yl)methoxy)pyrido[4,3-d]pyrimidin-7-yl)-6-fluoro-5-(methylthio)naphthalen-2-ol] | 10 nM | –
C[C@@H]1OCC2(CCN(c3nc(OC[C@@]45CCCN4C[C@H](F)C5)nc4c(F)c(-c5cc(O)cc6ccc(F)c(F)c56)ncc34)CC2)[C@@H]1N [Example 57, 4-(4-((3S,4S)-4-amino-3-methyl-2-oxa-8-azaspiro[4.5]decan-8-yl)-8-fluoro-2-(((2R, 7aS)-2-fluorotetrahydro-1H-pyrrolizin-7a(5H)-yl)methoxy)pyrido[4,3-d]pyrimidin-7-yl)-5,6-difluoronaphthalen-2-ol] | > 2500 nM | –
Oc1cc(-c2ncc3c(N4C[C@H]5CC[C@@H](C4)S5)nc(OC[C@@]45CCCN4C[C@H](F)C5)nc3c2F)c2c(F)cccc2c1 [Example 26, 4-(4-((1R,5S)-8-thia-3-azabicyclo[3.2.1]octan-3-yl)-8-fluoro-2-(((2R, 7aS)-2-fluorotetrahydro-1H-pyrrolizin-7a(5H)-yl)methoxy)pyrido[4,3-d]pyrimidin-7-yl)-5-fluoronaphthalen-2-ol] | 300 nM | –

— patent US20240300980A1, “HETEROCYCLIC COMPOUNDS AS KRAS INHIBITOR, AND PREPARATION THEREFOR AND USE THEREOF IN TREATMENT” (SHANGHAI KECHOW PHARMA, INC., priority 2021, published 2024)
